Patent US7572818B2, “2-pyridylethylbenzamide derivative” (Bayer Cropscience S.A., priority 2002, dated 2009)

The compounds below were run on Alternaria brassicae (assay: In vivo test of activity on Alternaria brassicae (crucifer black spot) on radish). Details: 330 ppm, preventive spray 24 h before inoculation.
Method: In Vivo Test of Activity on Alternaria brassicae (Crucifer Black Spot)
An aqueous solution of the active material to be tested is prepared at a concentration of 2 g/l by grinding in solution 1 or solution 2:
• Water • Tween 80 diluted to 10% in water: 5 μl/mg of active material • Clay in a sufficient amount for active material+clay to equal 100 mg; Solution 2
Concentrated solution containing surfactants and adjuvants conventionally used: 200 μl/mg of active material.
The aqueous solution is diluted with water so as to obtain the desired concentration.
Radishes of the Pernot variety are sown in a 50/50 pozzolan/peat substrate and maintained at 18-22° C. The treatment is carried out by spraying the aqueous suspension. The untreated control plants are sprayed with water. 24 hours after treatment, the plants are inoculated by spraying a solution of Alternaria brassicae spores (40 000 spores/ml) originating from a 12-day culture.
The radish plants are then maintained at 18-20° C. in a humid atmosphere. The effectiveness of the products is evaluated relative to the control plants after seven to eight days of incubation.
The effectiveness of the molecules is estimated, at 500 g/ha, 250 g/ha or 330 ppm, by the percentage of control relative to untreated plants. Under these conditions, good effectiveness is defined as more than 80% effectiveness. Average effectiveness is defined as an effectiveness between 50 and 80%. Poor effectiveness is defined as an effectiveness between 10 and 50% and zero effectiveness is defined as less than 10% effectiveness.
With `CCCOc1ccccc1C(=O)NCCc1ncc(C(F)(F)F)cc1Cl` [Compound A-91] the “effectiveness (percentage of control relative to untreated plants)” value was “good to average”.
`CC(C)c1c(Br)cccc1C(=O)NCCc1ncc(C(F)(F)F)cc1Cl` [Compound A-151] was tested, and the “effectiveness (percentage of control relative to untreated plants)” value was “good to average”.
`Cc1cccc(C(=O)NCCc2ncc(C(F)(F)F)cc2Cl)c1Cl` [Compound A-178] was tested, and the “effectiveness (percentage of control relative to untreated plants)” value was “good to average”.
With `CSc1c(C(=O)NCCc2ncc(C(F)(F)F)cc2Cl)ccc(Cl)c1Cl` [Compound A-144] the “effectiveness (percentage of control relative to untreated plants)” value was “good to average”.
`O=C(NCCc1ncc(C(F)(F)F)cc1Cl)c1ccccc1O` [Compound A-52] was tested, and the “effectiveness (percentage of control relative to untreated plants)” value was “good to average”.
`Cc1ccc(Cl)c(C(=O)NCCc2ncc(C(F)(F)F)cc2Cl)c1` [Compound A-184] was tested, and the “effectiveness (percentage of control relative to untreated plants)” value was “good to average”.
With `Cc1ccc(Cl)c(C(=O)NCCc2ncc(C(F)(F)F)cc2Cl)c1F` [Compound A-182] the “effectiveness (percentage of control relative to untreated plants)” value was “good to average”.
`O=C(NCCc1ncc(C(F)(F)F)cc1Cl)c1cc(C(F)(F)F)ccc1C(F)(F)F` [Compound A-72] was tested, and the “effectiveness (percentage of control relative to untreated plants)” value was “good to average”.
In the case of `COc1c(F)ccc(C(=O)NCCc2ncc(C(F)(F)F)cc2Cl)c1SC` [Compound A-148], the “effectiveness (percentage of control relative to untreated plants)” value is reported as “good to average”.
`Cc1cccc(C(=O)NCCc2ncc(C(F)(F)F)cc2Cl)c1C` [Compound A-60] was tested, and the “effectiveness (percentage of control relative to untreated plants)” value was “good to average”.
In the case of `CS(=O)(=O)c1ccc(C(=O)NCCc2ncc(C(F)(F)F)cc2Cl)c(Br)c1` [Compound A-137], the “effectiveness (percentage of control relative to untreated plants)” value is reported as “good to average”.
In the case of `Cc1cc(Br)ccc1C(=O)NCCc1ncc(C(F)(F)F)cc1Cl` [Compound A-80], the “effectiveness (percentage of control relative to untreated plants)” value is reported as “good to average”.
In the case of `CSc1c(Br)ccc(C(=O)NCCc2ncc(C(F)(F)F)cc2Cl)c1F` [Compound A-168], the “effectiveness (percentage of control relative to untreated plants)” value is reported as “good to average”.
With `COc1cc(OC)c(C(=O)NCCc2ncc(C(F)(F)F)cc2Cl)cc1OC` [Compound A-84] the “effectiveness (percentage of control relative to untreated plants)” value was “good to average”.
With `Cc1ccc([N+](=O)[O-])cc1C(=O)NCCc1ncc(C(F)(F)F)cc1Cl` [Compound A-79] the “effectiveness (percentage of control relative to untreated plants)” value was “good to average”.
`O=C(NCCc1ncc(C(F)(F)F)cc1Cl)c1ccc(Cl)cc1I` [Compound A-176] was tested, and the “effectiveness (percentage of control relative to untreated plants)” value was “good to average”.
`CSc1c(C(=O)NCCc2ncc(C(F)(F)F)cc2Cl)ccc(Cl)c1Br` [Compound A-146] was tested, and the “effectiveness (percentage of control relative to untreated plants)” value was “good to average”.
With `CSc1cc(C(F)(F)F)ccc1C(=O)NCCc1ncc(C(F)(F)F)cc1Cl` [Compound A-143] the “effectiveness (percentage of control relative to untreated plants)” value was “good to average”.
`O=C(NCCc1ncc(C(F)(F)F)cc1Cl)c1cccc(Cl)c1Cl` [Compound A-48] was tested, and the “effectiveness (percentage of control relative to untreated plants)” value was “good to average”.
For `CS(=O)(=O)c1ccc(C(=O)NCCc2ncc(C(F)(F)F)cc2Cl)c(C(F)(F)F)c1` [Compound A-138], the “effectiveness (percentage of control relative to untreated plants)” value was “good to average”.
For `COc1ccc(OC)c(C(=O)NCCc2ncc(C(F)(F)F)cc2Cl)c1` [Compound A-85], the “effectiveness (percentage of control relative to untreated plants)” value was “good to average”.
With `O=C(NCCc1ncc(C(F)(F)F)cc1Cl)c1c(F)cccc1Br` [Compound A-112] the “effectiveness (percentage of control relative to untreated plants)” value was “good to average”.
In the case of `O=C(NCCc1ncc(C(F)(F)F)cc1Cl)c1c(F)ccc(F)c1Cl` [Compound A-113], the “effectiveness (percentage of control relative to untreated plants)” value is reported as “good to average”.

Same assay, conditions: 500 g/ha, preventive spray 24 h before inoculation
In the case of `COc1ccc(C(=O)NCCc2ncc(C(F)(F)F)cc2Cl)cc1OC` [Compound A-13], the “effectiveness (percentage of control relative to untreated plants)” value is reported as “good to average”.
